According to paper PMC6112376, “Comprehensive Analyses and Prioritization of Tox21 10K Chemicals Affecting Mitochondrial Function by in-Depth Mechanistic Studies” (Environmental Health Perspectives, 2018):
Where two headings read alike, the source gives them in different places.

What was measured:
[1] = test system: HeLa cells expressing YFP-Parkin; experiment: Parkin translocation assay; format: cell-based, human
[2] = test system: Nrf2/ARE (ARE-bla HepG2 cells); experiment: ARE β-lactamase reporter gene assay; format: cell-based, human; settings: 16 h incubation; mean±SD of three experiments
HepG2 cells [3] = experiment: cells; settings: Homo sapiens
rat primary hepatocytes [4] = test system: rat primary hepatocytes
[5] = test system: mitochondrial respiratory chain complex I; format: biochemical, rat
[6] = test system: Caenorhabditis elegans (Bristol N2); experiment: C. elegans larval development and growth assay
[7] = test system: mitochondrial respiratory chain complex IV; format: biochemical, rat
HepG2 cells [8] = settings: cited from earlier work
[9] = test system: p53 (p53-bla HCT-116 cells); experiment: p53 β-lactamase reporter gene assay; format: cell-based, human; settings: Homo sapiens; 16 h incubation; mean±SD of three experiments
[10] = test system: mitochondrial respiratory chain complex III; format: biochemical, rat
[11] = target: T1, mitochondrial respiratory chain complex II (Rattus norvegicus, UniProt P21913+Q641Z9+Q6PCT8+Q920L2); experiment: Respiratory chain complex II activity; format: biochemical; settings: at 0.8μM; mean±SD of three experiments
T1 construct: Submitochondrial particles were prepared by subjecting the intact rat mitochondria, isolated as described above, to three successive freeze–thaw cycles; from tissue; host or cells: rat liver mitochondria (submitochondrial particles)

[12] = test system: mitochondrial respiratory chain complex V; format: biochemical, rat; settings: at 20μM
HepG2 cells [13] = experiment: ROS-Glo hydrogen peroxide (ROS) assay; format: cell-based, human; settings: Homo sapiens, HepG2, 2 h, read-out: ROS (HepG2) EC50
[14] = test system: isolated rat liver mitochondria; experiment: Oxygen consumption, Clark-type oxygen electrode; format: biochemical
rat primary hepatocytes [15] = experiment: MMP assay in rat primary hepatocytes; settings: Rattus norvegicus, Hepatocyte
[16] = test system: Caenorhabditis elegans strain PE255; experiment: In vivo C. elegans ATP status assay
hNSC = experiment: MMP assay in human neural stem cells (hNSC); format: cell-based; settings: Homo sapiens, Neural stem cell, 1 h, read-out: hNSC IC50 (MMP)
[17] = test system: Caenorhabditis elegans (Bristol N2); settings: Bristol N2 (wild type), Caenorhabditis elegans, in vivo
HepG2 cells [18] = experiment: Intracellular ATP content (cell viability) assay; format: cell-based, human; settings: Homo sapiens, HepG2, 40 h

T1 sequence (Q920L2 35-656): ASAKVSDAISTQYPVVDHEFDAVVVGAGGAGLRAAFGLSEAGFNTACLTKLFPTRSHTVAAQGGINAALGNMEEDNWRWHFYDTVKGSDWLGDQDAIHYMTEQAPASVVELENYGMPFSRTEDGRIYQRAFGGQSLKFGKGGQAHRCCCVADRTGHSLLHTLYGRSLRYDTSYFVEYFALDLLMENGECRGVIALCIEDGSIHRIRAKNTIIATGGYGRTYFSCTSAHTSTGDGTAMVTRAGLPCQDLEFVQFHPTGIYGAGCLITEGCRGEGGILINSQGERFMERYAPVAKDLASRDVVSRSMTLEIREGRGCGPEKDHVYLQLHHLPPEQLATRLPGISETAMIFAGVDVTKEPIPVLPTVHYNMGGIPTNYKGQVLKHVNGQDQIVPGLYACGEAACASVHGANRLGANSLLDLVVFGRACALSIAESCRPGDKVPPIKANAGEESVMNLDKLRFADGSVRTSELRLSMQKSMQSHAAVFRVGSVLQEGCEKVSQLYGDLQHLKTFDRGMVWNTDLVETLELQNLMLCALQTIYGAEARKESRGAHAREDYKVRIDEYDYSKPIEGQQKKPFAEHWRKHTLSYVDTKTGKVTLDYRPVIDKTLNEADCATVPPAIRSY
T1 sequence (P21913 31-282): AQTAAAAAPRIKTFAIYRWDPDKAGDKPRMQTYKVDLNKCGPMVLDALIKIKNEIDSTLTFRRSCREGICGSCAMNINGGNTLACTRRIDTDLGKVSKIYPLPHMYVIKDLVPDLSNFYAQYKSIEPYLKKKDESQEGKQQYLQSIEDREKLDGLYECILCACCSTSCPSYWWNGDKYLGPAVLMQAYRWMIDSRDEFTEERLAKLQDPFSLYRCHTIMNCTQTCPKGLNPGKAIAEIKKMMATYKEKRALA
T1 sequence (Q641Z9 1-169): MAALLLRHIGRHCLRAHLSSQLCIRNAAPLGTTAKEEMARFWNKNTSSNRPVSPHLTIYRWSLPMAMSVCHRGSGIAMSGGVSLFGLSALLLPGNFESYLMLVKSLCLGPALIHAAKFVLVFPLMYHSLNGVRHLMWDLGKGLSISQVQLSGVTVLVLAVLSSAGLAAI
T1 sequence (Q6PCT8 57-159): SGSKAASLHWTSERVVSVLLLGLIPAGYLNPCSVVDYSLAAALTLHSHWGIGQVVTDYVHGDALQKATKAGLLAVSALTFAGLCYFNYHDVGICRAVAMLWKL

O=C(Nc1ccc(Oc2ccc(Cl)cc2)c(Cl)c1)c1cc(I)cc(I)c1O [Rafoxanide, reference compound]
Parkin recruitment [1]: Active
ARE (HepG2) EC50 [2]: Inactive
IC50 (HepG2 cells [3]; HepG2, 1 h, read-out: HepG2 IC50 Galactose (MMP)): 18.6 µM
IC50 (HepG2 cells [3]; HepG2, 1 h, read-out: HepG2 IC50 Glucose (MMP)): 20.9 µM
IC50 (HepG2 cells [3]; HepG2, read-out: MMP assays IC50 (µM) HepG2): 1.23 µM
Emax (HepG2 cells [3]; HepG2, read-out: MMP assays efficacy (%) HepG2): 119%
MMP assays efficacy (%) Rat Hepatocytes (rat primary hepatocytes [4]): -91±18%
Rat hepatocytes (efficacy) (MMP) (rat primary hepatocytes [4]): 4.50±0.81 ( −72.1±10.3 ) %
Complex I % inhibition (activity call) [5]: Inactive
EXT: mean difference in nematode size relative to plate controls ([6]; 0.5 µM): -0.03197
EXT: mean difference in nematode size relative to plate controls ([6]; 1 µM): 0.04544
EXT: mean difference in nematode size relative to plate controls ([6]; 5 µM): 0.3092
EXT: mean difference in nematode size relative to plate controls ([6]; 10 µM): 0.3633
EXT: mean difference in nematode size relative to plate controls ([6]; 25 µM): 1.242
EXT: mean difference in nematode size relative to plate controls ([6]; 50 µM): 1.69
EXT: mean difference in nematode size relative to plate controls ([6]; 75 µM): 0.8224
EXT: mean difference in nematode size relative to plate controls ([6]; 100 µM): 0.8924
minimal effective concentration ([6]; Caenorhabditis elegans, read-out: LEC EXT: lowest effect concentration for extinction, a measure of nematode size): 2.5 µM
Complex IV % inhibition (activity call) [7]: Inactive
MMP assays efficacy (%) qHTS-HepG2 (HepG2 cells [8]): -110±8%
IC50 (HepG2 cells [8]; read-out: MMP assays IC50 (µM), qHTS-HepG2): 3.27 ± 1.76 µM
EC50 [9]: 9.11 ± 3.81 µM
Complex III % inhibition (activity call) [10]: Inactive
inhibition at 0.8 µM [11]: 44.4 ± 6.56%
Complex V % inhibition [12]: 40.1±1.87 at 20μM %
EC50 (HepG2 cells [13]): 26.5 µM
Potential Mechanism [14]: Uncoupler + inhibitor
I-ADP, % of control (O2 consumption rate) ([14]; 0.0064 µM): 93 (51.1) % of control
I-sub, % of control (O2 consumption rate) ([14]; 0.0064 µM): 94 (12.3) % of control
II-ADP, % of control (O2 consumption rate) ([14]; 0.0064 µM): 100 (88.4) % of control
II-sub, % of control (O2 consumption rate) ([14]; 0.0064 µM): 99 (24.3) % of control
I-ADP, % of control (O2 consumption rate) ([14]; 0.032 µM): 90 (41.4) % of control
I-sub, % of control (O2 consumption rate) ([14]; 0.032 µM): 118 (13.2) % of control
II-ADP, % of control (O2 consumption rate) ([14]; 0.032 µM): 70 (52.6) % of control
II-sub, % of control (O2 consumption rate) ([14]; 0.032 µM): 97 (20.0) % of control
I-ADP, % of control (O2 consumption rate) ([14]; 0.16 µM): 105 (48.3) % of control
I-sub, % of control (O2 consumption rate) ([14]; 0.16 µM): 163 (18.3) % of control
II-ADP, % of control (O2 consumption rate) ([14]; 0.16 µM): 63 (47.1) % of control
II-sub, % of control (O2 consumption rate) ([14]; 0.16 µM): 116 (23.9) % of control
I-ADP, % of control (O2 consumption rate) ([14]; 0.8 µM): 121 (55.6) % of control
I-sub, % of control (O2 consumption rate) ([14]; 0.8 µM): 379 (42.5) % of control
II-ADP, % of control (O2 consumption rate) ([14]; 0.8 µM): 45 (33.6) % of control
II-sub, % of control (O2 consumption rate) ([14]; 0.8 µM): 137 (28.2) % of control
I-ADP, % of control (O2 consumption rate) ([14]; 4 µM): 95 (43.7) % of control
I-sub, % of control (O2 consumption rate) ([14]; 4 µM): 399 (44.7) % of control
II-ADP, % of control (O2 consumption rate) ([14]; 4 µM): 23 (17.4) % of control
II-sub, % of control (O2 consumption rate) ([14]; 4 µM): 88 (18.1) % of control
I-ADP, % of control (O2 consumption rate) ([14]; 20 µM): 15 (7.1) % of control
I-sub, % of control (O2 consumption rate) ([14]; 20 µM): 116 (13.0) % of control
II-ADP, % of control (O2 consumption rate) ([14]; 20 µM): 15 (11.3) % of control
II-sub, % of control (O2 consumption rate) ([14]; 20 µM): 55 (11.4) % of control
IC50 (rat primary hepatocytes [15]; 1 h, read-out: Rat hepatocytes IC50 (MMP)): 4.5 µM
IC50 (rat primary hepatocytes [15]; read-out: MMP assays IC50 (µM) Rat Hepatocytes): 1.86 ± 0.83 µM
LUM: mean difference in luminescence (ATP content) relative to plate controls ([16]; 0.5 µM): 0.09174
LUM: mean difference in luminescence (ATP content) relative to plate controls ([16]; 1 µM): -0.0514
LUM: mean difference in luminescence (ATP content) relative to plate controls ([16]; 5 µM): 0.4289
LUM: mean difference in luminescence (ATP content) relative to plate controls ([16]; 10 µM): 0.2032
LUM: mean difference in luminescence (ATP content) relative to plate controls ([16]; 25 µM): 0.5878
LUM: mean difference in luminescence (ATP content) relative to plate controls ([16]; 50 µM): 0.4453
LUM: mean difference in luminescence (ATP content) relative to plate controls ([16]; 75 µM): 0.5488
LUM: mean difference in luminescence (ATP content) relative to plate controls ([16]; 100 µM): 0.6986
minimal effective concentration ([16]; Caenorhabditis elegans, read-out: LEC LUM: lowest effect concentration for luminescence, a measure of nematode ATP content): 75 µM
IC50 (hNSC): 10.3 µM
LEC (lowest effect concentration), larval growth assay [17]: ≤ 10 µM
IC50 (HepG2 cells [18]; read-out: ATP (HepG2, galactose) IC50): 54.1 µM
IC50 (HepG2 cells [18]; read-out: ATP (HepG2, glucose) IC50): 46.7 µM
